Where two headings read alike, the source gives them in different places.
How the values were obtained:
h-GABA-A α2β2γ1 receptor = h-GABA-A α2β2γ1 receptor (Homo sapiens (Human), UniProt P47869+Q8N1C3); experiment: Two-electrode voltage clamp electrophysiology in Xenopus oocytes expressing GABAA receptors; type: cell-based; settings: for potentiation of the GABA-induced current: α2β2γ1 GABAA receptor subtype expressing oocytes, GABA EC20, reference PAMs
Experimental: Xenopus laevis oocytes at maturation stages V-VI were used for the expression of cloned mRNA encoding GABAA receptor subunits. Oocytes ready for RNA micro-injection were bought from Ecocyte, Castrop-Rauxel, Germany and stored in modified Barth's medium (composition in mM: NaCl 88, KCl 1, NaHCO3 2.4, HEPES 10, MgSO4 0.82, CaNO3 0.33, CaCl2 0.33, pH=7.5) at 20° C. until the experiment.
Oocytes were plated in 96-well plates for microinjection using the Roboinject automated instrument (MultiChannelSystems, Reutlingen, Germany). Approximately 50 nL of an aqueous solution containing the RNA transcripts for the subunits of the desired GABAA receptor subtype was injected into each oocyte. […] Oocytes were kept in modified Barth's medium (composition in mM: NaCl 88, KCl 1, NaHCO3 4, HEPES 10, MgSO4 0.82, CaNO3 0.33, CaCl, 0.33, pH=7.5) at 20° C. until the experiment.
Electrophysiological experiments were performed using the Roboocyte instrument (MultiChannelSystems, Reutlingen, Germany) on days 3 to 5 after the micro-injection of mRNA. During the experiment the oocytes were constantly superfused by a solution containing (in mM) NaCl 90, KCl 1, HEPES 5, MgCl2 1, CaCl2 1 (pH 7.4). Oocytes were impaled by two glass microelectrodes (resistance: 0.5-0.8 MΩ) which were filled with a solution containing KCl 1M+K-acetate 1.5 M and voltage-clamped to −80 mV. The recordings were performed at room temperature using the Roboocyte two-electrode voltage clamp system (Multichannelsystem). After an initial equilibration period of 1.5 min GABA was added for 1.5 min at a concentration evoking approximately 20% of a maximal current response (EC2O). After another rest interval of 2.5 min GABA was again added evoking a response of similar amplitude and shape. […] Current traces were recorded at a digitization rate of 10 Hz during and shortly before and after the GABA application.
Each compound and concentration was tested on at least 3 oocytes. Different oocytes were used for different compound concentrations.
For the analysis, the digitized current traces of the first and second GABA response were superimposed and, if necessary, rescaled to equal maximal amplitudes. The ratio between the two responses during the time interval of test compound application was calculated point by point. The extremum of the resulting “ratio trace” was taken as the efficacy (“Fold increase”) of the compound expressed as “% modulation of GABA EC20” (100*(Fold increase−1)).

[1] = target: human GABAA α1β3γ2 receptor (Homo sapiens (Human), UniProt P14867+P18507); experiment: Radioligand binding assay, competition for [3H]Flumazenil, HEK293F cells; settings: for γ2/γ1 Selectivity Ratio: Ki α1β3γ2 (nM)/Ki α2β2γ1 (nM); for LogSel: Log[Ki α1β3γ2 (nM)/Ki α2β2γ1 (nM)]
Experimental: The affinity of compounds at GABAA γ2 subunit-containing receptors was measured by competition for [^3H]Flumazenil (81.1 Ci/mmol; Roche) binding to HEK293F cells expressing human (transiently transfected) receptors of composition α1β3γ2.
Harvested pellets from HEK293F cells expressing the different GABAA γ2 receptor subtypes were resuspended in Mannitol Buffer pH 7.2-7.4 and processed as described above for the cells expressing the GABAA γ1 subunit-containing receptors.
Assays were incubated to equilibrium for 1 hour at 4° C. and harvested onto GF/C uni-filters (Packard) by filtration using a Packard harvester and washing with ice-cold wash buffer (50 mM Tris; pH 7.5). After anhydrousing, filter-retained radioactivity was detected by liquid scintillation counting. Ki values were calculated using Excel-Fit (Microsoft) and are the means of two determinations.

[2] = target: human GABAA α2β2γ1 receptor (Homo sapiens (Human), UniProt P47869+Q8N1C3); experiment: Radioligand binding assay, competition for [3H]RO7239181, membranes from HEK293F cells
Experimental: (§1) The affinity of compounds at GABAA γ1 subunit-containing receptors was measured by competition for [^3H]RO7239181 (67.3 Ci/mmol; Roche) binding to membranes from HEK293F cells (ThermoFisher R79007) expressing human (transiently transfected) receptors of composition α5β2γ1, α2β2γ1, α1β2γ1.
(§2) Harvested pellets from HEK293F cells expressing the different GABAA receptor subtypes were resuspended in Mannitol Buffer pH 7.2-7.4 (Mannitol 0.29M, Triethylamine 10 mM, Acetic acid 10 mM, EDTA 1 mM plus protease inhibitors (20 tablets Complete, Roche Diagnostics Cat. No. 05 056 489 001 per liter)), washed two times and then resuspended at 1:10 to 1:15 dilution in the same buffer. Cell disruption was performed by stirring the suspension in a Parr vessel #4637 at 435 psi for 15 minutes, and then the suspensions were centrifuged at 1000×g for 15 minutes at 4° C. (Beckman Avanti J-HC; rotor JS-4.2). The supernatant (S1) was transferred in a 21 Schott flask and the pellet (P1) was resuspended with Mannitol Buffer up to 175 ml. The resuspended pellet was transferred into a 250 ml Corning centrifugal beaker and centrifuged at 1500×g for 10 minutes at 4° C. (Beckman Avanti J-HC; rotor JS-4.2). The supernatant (S1) was then transferred in the 21 Schott flask and the pellet was discarded. The supernatants (S1) were centrifuged in 500 ml Beckman polypropylene centrifugal beaker at 15′000×g for 30 minutes at 4° C. (Beckman Avanti J-20 XP; rotor JLA-10.500). The pellet (P2) was resuspended with Mannitol Buffer 1:1 and frozen at −80° C. The supernatant (S2) was centrifuged in 100 ml Beckman polypropylene centrifugal tubes at 48000×g for 50 minutes at 4° C. (Beckman Avanti J-20 XP; rotor JA-18). The supernatant (S3) was discarded and the pellet (P3) was resuspended with 1:1 Mannitol Buffer. The P2 and P3 protein concentration was determined with the BIORAD Standard assay method with bovine serum albumin as standard and measured on the NANO-Drop 1000. The membrane suspension was aliquots (500 μl per tube) and stored at −80° C. until required.
(§3) Membrane homogenates were resuspended and polytronised (Polytron PT1200E Kinematica AG) in Potassium Phosphate 10 mM, KCl 100 mM binding buffer at pH 7.4 to a final assay concentration determined with a previous experiment.
(§4) Assays were incubated to equilibrium for 1 hour at 4° C. and then, membranes were filtered onto unifilter (96-well white microplate with bonded GF/C filters preincubated 20-50 minutes in 0.3% Polyethylenimine) with a Filtermate 196 harvester (Packard BioScience) and washed 4 times with cold Potassium Phosphate 10 mM pH 7.4, KCl 100 mM binding buffer. After anhydrousing, filter-retained radioactivity was detected by liquid scintillation counting. Ki values were calculated using Excel-Fit (Microsoft) and are the means of two determinations.

[3] = target: human GABAA α5β2γ1 receptor (Homo sapiens (Human), UniProt P31644+Q8N1C3); experiment: as above
Experimental: as §1, with “α1β2γ1. For better protein expression of the α2 subunit-containing receptors, the 28 amino acid long signal peptide (Met1 to Ala28) of the human GABAA α2 subunit was substituted by the 31 amino acid long signal peptide (Met1 to Ser31) of human GABAA α5 subunit.” for “α1β2γ1.”
as §2, §3
as §4, with “Radioligand binding assays were carried out in a volume of 200 μL (96-well plates) which contained 100 μL of cell membranes, [^3H]RO7239181 at a concentration of 1.5 nM (α5β2γ1) or 20-30 nM (α1β2γ1, α2β2γ1) and the test compound in the range of [0.3-10000]×10^−9 M. Nonspecific binding was defined by 10×10^−6 (α5β2γ1) and 30×10^−6 M RO7239181 and typically represented less than 5% (α5β2γ1) and less than 20% (α1β2γ1, α2β2γ1) of the total binding. Assays” for “Assays”
Representative test results, obtained by the above described assay measuring binding affinity to HEK293 cells expressing human (h) receptors, are shown in the Table 1.

[4] = read-out: Ki h-GABAA α2β2γ1, [3H]RO7239181 20-30 nM, HEK293F membranes, 1 hour at 4° C., mean of two determinations

SMILES: CN1C(=O)CN=C(c2ccccc2F)c2cc([N+](=O)[O-])ccc21 [Flunitrazepam, reference compound]
- potentiation of the GABA-induced current (h-GABA-A α2β2γ1 receptor): ~60%

SMILES: Cc1cn2c(n1)[C@H](C)N=C(c1nc(O)ccc1Cl)c1c-2ccc(C(F)(F)F)c1Cl [Example 27, 5-chloro-6-[(4S)-7-chloro-2,4-dimethyl-8-(trifluoromethyl)-4H-imidazo[1,2-a][1,4]benzodiazepin-6-yl]pyridin-2-ol]
- Ki [1]: 3550 nM
- γ2/γ1 Selectivity Ratio [1]: 679.2
- LogSel [1]: 2.83
- Ki [2]: 5.22 nM
- Ki [2, 4]: 5.22 nM
- Ki [3]: 2.8 nM

SMILES: CC(C)NC(=O)c1cn2c(n1)[C@H](C)N=C(c1nc(O)ccc1F)c1c-2ccc(C(F)(F)F)c1Cl [Example 32, (4S)-7-chloro-6-(3-fluoro-6-hydroxy-2-pyridyl)-N-isopropyl-4-methyl-8-(trifluoromethyl)-4H-imidazo[1,2-a][1,4]benzodiazepine-2-carboxamide]
- Ki [1]: 8600 nM
- γ2/γ1 Selectivity Ratio [1]: 796.0
- LogSel [1]: 2.90
- Ki [2]: 10.8 nM
- Ki [2, 4]: 10.8 nM
- Ki [3]: 4.7 nM

SMILES: CN1C(=O)CN=C(c2cc(O)ccc2F)c2cc(Cl)ccc21 [RE-B, 7-chloro-5-(2-fluoro-5-hydroxy-phenyl)-1-methyl-3H-1,4-benzodiazepin-2-one, reference compound]
- Ki [1]: 1.1 nM
- γ2/γ1 Selectivity Ratio [1]: 0.58
- LogSel [1]: −0.24
- Ki [2]: 1.9 nM

SMILES: Cc1nnc2n1-c1ccc(Cl)cc1C(c1ccccc1)=NC2 [Alprazolam, reference compound]
- LogSel [1]: −2.3

SMILES: Cc1nnc2n1-c1ccc(Cl)cc1C(c1ccccc1Cl)=NC2 [Triazolam, reference compound]
- LogSel [1]: −1.5
- potentiation of the GABA-induced current (h-GABA-A α2β2γ1 receptor): ~60%

SMILES: Cc1ncc2n1-c1ccc(Cl)cc1C(c1ccccc1F)=NC2 [Midazolam, reference compound]
- LogSel [1]: −2.2
- potentiation of the GABA-induced current (h-GABA-A α2β2γ1 receptor): ~60%

SMILES: C[C@@H]1N=C(c2nc(O)ccc2F)c2c(ccc(C(F)(F)F)c2Cl)-n2nc(C(=O)N3CC(F)C3)nc21 [Example 21, [(4S)-7-chloro-6-(3-fluoro-6-hydroxy-2-pyridyl)-4-methyl-8-(trifluoromethyl)-4H-[1,2,4]triazolo[1,5-a][1,4]benzodiazepin-2-yl]-(3-fluoroazetidin-1-yl)methanone]
- Ki ([1]; read-out: Ki h-GABAA α1β3γ2, [3H]Flumazenil 1 nM, HEK293F membranes, 1 hour at 4° C., mean of two determinations): > 30000 nM
- Ki [2]: 11.8 nM
- Ki ([3]; read-out: Ki h-GABAA α5β2γ1, [3H]RO7239181 […], HEK293F membranes, 1 hour at 4° C., mean of two determinations): 5.51 nM
- Efficacy (GABA) % (h-GABA-A α2β2γ1 receptor; % modulation of GABA EC20 = 100*(Fold increase−1), compound at 30-fold Ki α2β2γ1): 73%

SMILES: Cc1nnc2n1-c1ccc(Cl)c(Cl)c1C(c1c(F)ccc(O)c1F)=N[C@H]2C [Example 19, 2,4-difluoro-3-[(4S)-7,8-dichloro-1,4-dimethyl-4H-[1,2,4]triazolo[4,3-a][1,4]benzodiazepin-6-yl]phenol]
- Ki [1]: 33 nM
- γ2/γ1 Selectivity Ratio [1]: 10.6
- LogSel [1]: 1.02
- Ki [2]: 3.12 nM
- Ki [2, 4]: 3.12 nM
- Ki [3]: 2.12 nM

SMILES: C[C@@H]1N=C(c2nc(O)ccc2F)c2c(ccc(C(F)(F)F)c2Cl)-n2cc(C(=O)NC3CC3)nc21 [Example 31, (4S)-7-chloro-N-cyclopropyl-6-(3-fluoro-6-hydroxy-2-pyridyl)-4-methyl-8-(trifluoromethyl)-4H-imidazo[1,2-a][1,4]benzodiazepine-2-carboxamide]
- Ki [1]: 12500 nM
- γ2/γ1 Selectivity Ratio [1]: 800.9
- LogSel [1]: 2.90
- Ki [2]: 15.6 nM
- Ki [2, 4]: 15.6 nM
- Ki [3]: 4.4 nM

SMILES: CN1C(=O)CN=C(c2cc(O)ccc2Cl)c2cc(Cl)ccc21 [RE-A, 7-chloro-5-(2-chloro-5-hydroxy-phenyl)-1-methyl-3H-1,4-benzodiazepin-2-one, reference compound]
- LogSel [1]: −0.27
- Ki ([2]; [3H]RO7239181 20-30 nM, HEK293F membranes, 1 hour at 4° C., mean of two determinations, read-out: Ki h-GABAA α2β2γ1): 2.8 nM

SMILES: Clc1ccc2c(c1)C(c1ccccc1)=NCc1nncn1-2 [Estazolam, reference compound]
- LogSel [1]: −2.0

Reference: patent US12344614B2, “Benzodiazepine derivatives as GABA a GAMMA1 PAM” (Hoffmann-La Roche Inc., priority 2021, dated 2025)
